{"source": "patent US20080039432A1", "about": "“Active Compound Combinations Having Insecticidal Properties” (priority 2004, published 2008)", "type_in_all_cases": "in vivo", "key": {"Myzus persicae": {"tested_on": "Myzus persicae", "method": "(§1) To produce a suitable preparation of active compound, 1 part by weight of active compound is mixed with the stated amounts of solvent and emulsifier, and the concentrate is diluted with emulsifier-containing water to the desired concentration.\nCabbage leaves (Brassica oleracea) which are heavily infested by the green peach aphid (Myzus persicae) are treated by being dipped into the preparation of active compound of the desired concentration.\nAfter the desired period of time, the kill in % is determiined. 100% means that all aphids have been killed; 0% means that none of the aphids have been killed. The determined kill rates are entered into Colby's formula."}, "[1]": {"tested_on": "Phaedon cochleariae larvae", "assay": "Phaedon cochleariae larvae test (cabbage leaf dip)", "method": "Phaedon Cochleariae Larvae Test\nas §1\nCabbage leaves (Brassica oleracea) are treated by being dipped into the active compound preparation of the desired concentration and are populated with larvae of the mustard beetle (Phaedon cochleariae) while the leaves are still moist.\nAfter the desired period of time, the kill in % is determined. 100% means that all larvae have been killed; 0% means that none of the larvae have been killed. The determined kill rates are entered into Colby's formula."}, "[2]": {"tested_on": "Plutella xylostella, resistant strain", "conditions": "Table A, 20 ppm, caterpillars on dipped cabbage leaves", "method": "Plutella Xylostella Test, Resistant Strain\nas §1\nCabbage leaves (Brassica oleracea) are treated by being dipped into the active compound preparation of the desired concentration and are populated with caterpillars of the diamondback moth (Plutella xylostella, resistant strain) while the leaves are still moist.\nAfter the desired period of time, the kill in % is determined. 100% means that all caterpillars have been killed; 0% means that none of the caterpillars have been killed. The determined kill rates are entered into Colby's formula."}}, "note": "Read-outs that look alike come from different tables or passages of the source.", "data": [{"compound": "O=[N+]([O-])N=C1NCCN1Cc1ccc(Cl)nc1", "note": "[imidacloprid]", "values": [{"measurement": "Kill in % after 1 d", "setting": "Myzus persicae; Table B1, 0.16 ppm", "result": 20, "unit": "%"}, {"measurement": "Kill in % after 1 d", "setting": "Myzus persicae; Table B2, 0.16 ppm", "result": 10, "unit": "%"}, {"measurement": "Kill in % after 1 d", "setting": "[1]; Table C1, 4 ppm", "result": 5, "unit": "%"}, {"measurement": "Kill in % after 1 d", "setting": "[1]; Table C2, 4 ppm", "result": 20, "unit": "%"}]}, {"compound": "CN/C(=N/[N+](=O)[O-])NCc1cnc(Cl)s1", "note": "[clothianidin]", "values": [{"measurement": "Kill in % after 6 days", "setting": "[2]", "result": 0, "unit": "%"}, {"measurement": "Kill in % after 1 d", "setting": "Myzus persicae; Table B1, 0.80 ppm", "result": 50, "unit": "%"}, {"measurement": "Kill in % after 1 d", "setting": "[1]; Table C2, 4 ppm", "result": 65, "unit": "%"}]}, {"compound": "ethoprophos", "values": [{"measurement": "Kill in % after 6 days", "setting": "[2]", "result": 5, "unit": "%"}, {"measurement": "Kill in % after 1 d", "setting": "Myzus persicae; Table B2, 20 ppm", "result": 0, "unit": "%"}]}, {"compound": "CNC(=O)O/N=C/C(C)(C)SC", "note": "[aldicarb]", "values": [{"measurement": "Kill in % after 1 d", "setting": "Myzus persicae; Table B1, 4 ppm", "result": 45, "unit": "%"}, {"measurement": "Kill in % after 1 d", "setting": "[1]; Table C1, 20 ppm", "result": 25, "unit": "%"}, {"measurement": "Kill in % after 1 d", "setting": "[1]; Table C2, 20 ppm", "result": 25, "unit": "%"}]}]}
